Values quoted from earlier work, collected in patent publication US12691080B2, “Fenretinide formulations, systems incorporating same, and methods for their use” (ARx, LLC, priority 2024, dated 2026).
≈ marks a conversion by molar mass, not a printed value.

Experiments:
[1] = pH 6.5

## CC1=C(/C=C/C(C)=C/C=C/C(C)=C/C(=O)Nc2ccc(O)cc2)C(C)(C)CCC1 [fenretinide, N-(4-hydroxyphenyl)retinamide]
[1]
  solubility in water: 0.013 µM (≈ 5.09 ng/mL)
Oral epithelium; epithelium with higher fenretinide levels (>5 μM)
  epithelial proliferation (Ki-67 indices): significantly reduced
Oral epithelium; fenretinide levels lower than 5 μM
  transglutaminase 1 levels: increased levels
Oral epithelium; lower fenretinide levels
  Phase II enzyme UGT1A1: increase
Oral epithelium; oral mucosal patch delivery
  systemically detectable drug: absence of any systemically detectable drug
